Experimental data: ChEMBL document CHEMBL4392848, “Proline-based hydroxamates targeting the zinc-dependent deacetylase LpxC: Synthesis, antibacterial properties, and docking studies” (Bioorg Med Chem, 2019)
≈ marks a conversion by molar mass, not a printed value.

What was measured:
Escherichia coli [1] = test: Antibacterial activity against Escherichia coli D22 measured after 20 hrs by microdilution method; type: functional; settings: D22, 20 h
Escherichia coli [2] = test: Antibacterial activity against Escherichia coli BL21(DE3) measured after 20 hrs by microdilution method; type: functional
Escherichia coli [3] = test: Antibacterial activity against Escherichia coli BL21(DE3) assessed as diameter of inhibition zone measured after overnight incubation by agar disc diffusion method; type: functional; further: test concentration or dose not given here
Enterobacter cloacae = test: Antibacterial activity against Enterobacter cloacae assessed as diameter of inhibition zone measured after 24 hrs by agar disc diffusion method; type: functional; further: test concentration or dose not given here
Proteus mirabilis = test: Antibacterial activity against Proteus mirabilis assessed as diameter of inhibition zone measured after 24 hrs by agar disc diffusion method; type: functional; further: test concentration or dose not given here
Klebsiella oxytoca = test: Antibacterial activity against Klebsiella oxytoca assessed as diameter of inhibition zone measured after 24 hrs by agar disc diffusion method; type: functional; further: test concentration or dose not given here
Citrobacter freundii = test: Antibacterial activity against Citrobacter freundii assessed as diameter of inhibition zone measured after 24 hrs by agar disc diffusion method; type: functional; further: test concentration or dose not given here
Klebsiella aerogenes = test: Antibacterial activity against Enterobacter aerogenes assessed as diameter of inhibition zone measured after 24 hrs by agar disc diffusion method; type: functional; further: test concentration or dose not given here
Pseudomonas aeruginosa = test: Antibacterial activity against Pseudomonas aeruginosa assessed as diameter of inhibition zone measured after 24 hrs by agar disc diffusion method; type: functional; further: test concentration or dose not given here
Escherichia coli [4] = test: Antibacterial activity against Escherichia coli D22 assessed as diameter of inhibition zone measured after overnight incubation by agar disc diffusion method; type: functional; further: test concentration or dose not given here
[5] = Inhibition of Escherichia coli LpxC C63A mutant using UDP-3-O-[(R)-3-hydroxymyristoyl]-N-acetylglucosamine as substrate measured after 30 mins by fluorescence based microplate assay
Proteus vulgaris = test: Antibacterial activity against Proteus vulgaris assessed as diameter of inhibition zone measured after 24 hrs by agar disc diffusion method; type: functional; further: test concentration or dose not given here
Klebsiella pneumoniae = test: Antibacterial activity against Klebsiella pneumoniae assessed as diameter of inhibition zone measured after 24 hrs by agar disc diffusion method; type: functional; further: test concentration or dose not given here

Structure (SMILES) | MIC (Escherichia coli [1]) | MIC (Escherichia coli [2]) | diameter of the inhibition zone (DIZ) (Escherichia coli [3]) | diameter of the inhibition zone (DIZ) (Enterobacter cloacae) | diameter of the inhibition zone (DIZ) (Proteus mirabilis) | diameter of the inhibition zone (DIZ) (Klebsiella oxytoca) | diameter of the inhibition zone (DIZ) (Citrobacter freundii) | diameter of the inhibition zone (DIZ) (Klebsiella aerogenes) | diameter of the inhibition zone (DIZ) (Pseudomonas aeruginosa) | diameter of the inhibition zone (DIZ) (Escherichia coli [4]) | IC50 [5] | Ki [5] | diameter of the inhibition zone (DIZ) (Proteus vulgaris) | diameter of the inhibition zone (DIZ) (Klebsiella pneumoniae)
CN(C)c1ccc(C#Cc2ccc(C(=O)N3C[C@@H](O)C[C@H]3C(=O)NO)cc2)cc1 | 32 µM (≈ 12.6 µg/mL) | 256 µM (≈ 101 µg/mL) | <6 mm | 8 mm | 8 mm | 8 mm | 9 mm | 9 mm | <6 mm | 13 mm | 16.7 µM | 2.3 µM | <6 mm | 9 mm
COc1ccc(C#Cc2ccc(C(=O)N3C[C@H](O)C[C@H]3C(=O)NO)cc2)cc1 | 64 µM (≈ 24.3 µg/mL) | > 256 µM | <6 mm | <6 mm | 7 mm | 7 mm | 7 mm | <6 mm | <6 mm | 9.7 mm | – | – | 8 mm | <6 mm
N[C@H]1C[C@@H](C(=O)NO)N(C(=O)c2ccc(C#Cc3ccccc3)cc2)C1 | 128 µM (≈ 44.7 µg/mL) | > 256 µM | 7.5 mm | 7 mm | 8 mm | 7 mm | 7 mm | 7 mm | 7 mm | 12.3 mm | – | – | <6 mm | 7 mm
CN(C)c1ccc(C#Cc2ccc(C(=O)N3C[C@H](O)C[C@H]3C(=O)NO)cc2)cc1 | 32 µM (≈ 12.6 µg/mL) | 256 µM (≈ 101 µg/mL) | <6 mm | <6 mm | 8 mm | 8 mm | 8 mm | 10 mm | <6 mm | 14 mm | – | – | <6 mm | 7 mm
Nc1ccc(C#Cc2ccc(C(=O)N3C[C@H](O)C[C@H]3C(=O)NO)cc2)cc1 | 128 µM (≈ 46.8 µg/mL) | > 256 µM | <6 mm | <6 mm | 7 mm | 7 mm | <6 mm | <6 mm | <6 mm | 12.3 mm | – | – | <6 mm | <6 mm
O=C(NO)[C@H]1O[C@@H](c2ccc(C#Cc3ccc(CN4CCOCC4)cc3)cc2)[C@@H](O)[C@H]1O | 16 µM (≈ 7.02 µg/mL) | > 256 µM | <6 mm | – | – | – | – | – | – | 13.2 mm | > 200 µM | > 27.6 µM | – | –
Nc1ccc(C#Cc2ccc(C(=O)N3C[C@@H](O)C[C@H]3C(=O)NO)cc2)cc1 | 128 µM (≈ 46.8 µg/mL) | > 256 µM | <6 mm | <6 mm | 8 mm | 8 mm | <6 mm | <6 mm | <6 mm | 13 mm | – | – | <6 mm | <6 mm
O=C(NO)[C@@H]1C[C@H](O)[C@H](c2ccc(C#Cc3ccc(CN4CCOCC4)cc3)cc2)O1 | 16 µM (≈ 6.76 µg/mL) | > 256 µM | <6 mm | – | – | – | – | – | – | 15.3 mm | 87 µM | 12 µM | – | –
Nc1ccc(C#Cc2ccc(C(=O)N3CCC[C@H]3C(=O)NO)cc2)cc1 | 128 µM (≈ 44.7 µg/mL) | > 256 µM | 7.5 mm | <6 mm | <6 mm | 7 mm | 7 mm | <6 mm | <6 mm | 14.3 mm | – | – | <6 mm | <6 mm
O=C(NO)[C@@H]1C[C@@H](O)CN1C(=O)c1ccc(C#Cc2ccc(F)cc2)cc1 | 256 µM (≈ 94.3 µg/mL) | > 256 µM | <6 mm | – | – | – | – | – | – | 10.7 mm | > 200 µM | > 27.6 µM | – | –
O=C(NO)[C@@H]1O[C@@H](c2ccc(C#Cc3ccc(CN4CCOCC4)cc3)cc2)[C@@H](O)[C@H]1O | 8 µM (≈ 3.51 µg/mL) | > 256 µM | <6 mm | – | – | – | – | – | – | 22.1 mm | 10 µM | 1.4 µM | – | –
COc1ccc(C#Cc2ccc(C(=O)N3C[C@@H](O)C[C@H]3C(=O)NO)cc2)cc1 | 128 µM (≈ 48.7 µg/mL) | > 256 µM | <6 mm | 8 mm | <6 mm | 7 mm | 8 mm | <6 mm | <6 mm | <6 mm | – | – | 9 mm | <6 mm
CC1(C)O[C@@H]2[C@H](O1)[C@H](c1ccc(C#Cc3ccc(CN4CCOCC4)cc3)cc1)O[C@@H]2C(=O)NO | 128 µM (≈ 61.3 µg/mL) | > 256 µM | <6 mm | – | – | – | – | – | – | 14.7 mm | > 200 µM | > 27.6 µM | – | –
O=C(NO)[C@@H]1C[C@H](F)CN1Cc1ccc(C#Cc2ccccc2)cc1 | 128 µM (≈ 43.3 µg/mL) | > 256 µM | <6 mm | – | – | – | – | – | – | 10.7 mm | > 200 µM | > 27.6 µM | – | –
O=C(NO)[C@@H]1C[C@@H](O)CN1C(=O)c1ccc(C#Cc2ccccc2)cc1 | 128 µM (≈ 44.8 µg/mL) | > 256 µM | <6 mm | – | – | – | – | – | – | 14 mm | 103 µM | 14.2 µM | – | –
O=C(NO)[C@@H]1C[C@H](F)CN1C(=O)c1ccc(C#Cc2ccccc2)cc1 | 128 µM (≈ 45.1 µg/mL) | > 256 µM | <6 mm | – | – | – | – | – | – | 13.3 mm | 65.9 µM | 9.1 µM | – | –
N[C@H]1C[C@@H](C(=O)NO)N(C(=O)c2ccc(C#Cc3ccc(CN4CCOCC4)cc3)cc2)C1 | 64 µM (≈ 28.7 µg/mL) | 256 µM (≈ 115 µg/mL) | 7.8 mm | <6 mm | 7 mm | 13 mm | 8 mm | 11 mm | 10 mm | 20 mm | – | – | <6 mm | 9 mm
